Molecular target: T1, bacteriophage T4 DNA polymerase (Enterobacteria phage T4, UniProt P04415)
T1 construct: made in house
T1 sequence (P04415 1-898): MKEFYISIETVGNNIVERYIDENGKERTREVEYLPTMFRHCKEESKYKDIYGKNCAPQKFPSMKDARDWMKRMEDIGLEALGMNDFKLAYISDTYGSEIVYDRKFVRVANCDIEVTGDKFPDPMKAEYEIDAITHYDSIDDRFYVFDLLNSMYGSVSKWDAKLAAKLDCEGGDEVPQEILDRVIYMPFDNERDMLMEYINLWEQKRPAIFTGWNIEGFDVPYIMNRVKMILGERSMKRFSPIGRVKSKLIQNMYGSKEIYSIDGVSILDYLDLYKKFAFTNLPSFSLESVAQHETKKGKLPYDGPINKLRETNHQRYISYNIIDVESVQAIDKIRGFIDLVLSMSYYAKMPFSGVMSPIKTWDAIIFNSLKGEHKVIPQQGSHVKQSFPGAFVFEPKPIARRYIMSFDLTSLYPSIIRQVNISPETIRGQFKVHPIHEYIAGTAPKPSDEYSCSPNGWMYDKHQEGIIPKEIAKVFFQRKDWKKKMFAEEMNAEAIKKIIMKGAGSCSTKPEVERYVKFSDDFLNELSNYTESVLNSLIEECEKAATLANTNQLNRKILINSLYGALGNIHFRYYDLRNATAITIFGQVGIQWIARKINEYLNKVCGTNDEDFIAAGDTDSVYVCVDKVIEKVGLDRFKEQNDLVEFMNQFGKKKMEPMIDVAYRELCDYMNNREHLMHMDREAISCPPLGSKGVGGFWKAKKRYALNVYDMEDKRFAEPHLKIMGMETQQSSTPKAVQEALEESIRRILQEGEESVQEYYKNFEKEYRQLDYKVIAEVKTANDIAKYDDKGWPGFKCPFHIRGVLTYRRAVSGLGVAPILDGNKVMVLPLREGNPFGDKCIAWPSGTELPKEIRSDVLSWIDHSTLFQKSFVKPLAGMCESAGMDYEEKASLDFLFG
Experiment: Counter-screen against bacteriophage T4 DNA polymerase
Type: biochemical
Settings: DRC-2
In short: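 Purified T4 DNA polymerase, a B-family enzyme, served as the counter-screen enzyme. Compounds were tested in dose-response format and IC50 values were derived.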

Row | Structure (SMILES) | % inhibition T4 10' (concentration 2.5) | % inhibition T4 10' (concentration 5) | % inhibition T4 10' (concentration 40) | % inhibition T4 10' (concentration 80) | % inhibition T4 40' (concentration 2.5) | % inhibition T4 40' (concentration 5) | % inhibition T4 40' (concentration 80) | % inhibition T4 90' (concentration 2.5) | % inhibition T4 90' (concentration 5) | % inhibition T4 90' (concentration 40) | % inhibition T4 180' (concentration 20) | % inhibition T4 180' (concentration 40) | % inhibition T4 180' (concentration 80) | % inhibition T4 10' (concentration 10) | % inhibition T4 10' (concentration 20) | % inhibition T4 40' (concentration 10) | % inhibition T4 40' (concentration 20) | % inhibition T4 40' (concentration 40) | also measured
1 | Cc1nc(/N=N/c2ccc(C(=O)[O-])cc2)c(COP(=O)([O-])[O-])c(C=O)c1O.[Na+].[Na+].[Na+] [KU0261395] | -16% | -9% | -10% | -18% | -20% | -16% | -18% | -20% | -18% | -11% | -9% | -11% | -10% | – | – | – | – | – | % inhibition T4 90' (concentration 10): -9%
2 | CCOC(=O)C1=C2c3cc(OC)c(OC)cc3CC(C)(C)N2C(=O)C1=O [KU0193659] | 9% | 6.54% | 38% | 45% | 9% | 6.54% | 45% | 8% | – | 37% | – | 37% | 44% | 23% | 29% | 23% | 29% | 38% | % inhibition T4 90' (concentration 80): 44%; % inhibition T4 180' (concentration 2.5): 9%; % inhibition T4 180' (concentration 5): 8%
3 | Cc1ccc(C)n1-c1ccc(C(=O)NNC(=O)c2ccc3nccnc3c2)cc1 [Molecule 53, O=C(c1ccc(cc1)n1c(C)ccc1C)NNC(=O)c1ccc2c(c1)nccn2] | 15% | 24% | 29% | 38% | 15% | 24% | 38% | – | 22% | 29% | 24% | – | – | 29% | 31% | 29% | 31% | 29% | % inhibition T4 90' (concentration 20): 29%; % inhibition T4 180' (concentration 10): 22%

Reference: paper PMC9090415, “Discovery of small molecule inhibitors of Plasmodium falciparum apicoplast DNA polymerase” (Journal of Enzyme Inhibition and Medicinal Chemistry, 2022)
